Measurements as given in patent publication US20240226120A1 (priority 2020, published 2024).

Experiments:
[1] = test system: interferon and interferon-induced antiviral effector gene expression in cells expressing ORF8; experiment: qPCR of interferons and effector gene expression, ORF8; assay type: cell-based, human
[2] = test system: interferon and interferon-induced antiviral effector gene expression in cells expressing ORF10; experiment: qPCR of interferons and effector gene expression, ORF10; assay type: cell-based, human

Compound: C=C(C)[C@@H]1CCC(C)=C[C@H]1c1c(O)cc(CCCCC)cc1O [Cannabidiol, 2-[(1R,6R)-3-Methyl-6-(1-methylethenyl)-2-cyclohexen-1-yl]-5-pentyl-1,3-benzenediol]
- Interferon Lambda 1 mRNA expression ([1]; ORF8, 1 μM CBD vs vehicle alone, 24 hours (FIG. 9A)): significantly increased
- extent of OAS1 augmentation compared with cells transfected with control vector ([1]; ORF8, 1 μM CBD, 24 hours): significantly higher
- INF-gamma expression ([1]; ORF8, 1 μM CBD, 24 hours, compared with effect in control cells (FIG. 9B)): greater effect
- OAS1 gene expression ([1]; ORF8, 1 μM CBD, 24 hours, relative to all other groups and treatments (FIG. 10)): highly significant increase
- induction of OAS1 ([2]; ORF10, 1 μM CBD relative to vehicle alone, 24 hours (FIG. 14)): significantly increased
- OAS1 induction compared with CBD plus control plasmid ([2]; ORF10, 1 μM CBD, 24 hours): lower
